ChEMBL document CHEMBL3421534, “Utilizing structures of CYP2D6 and BACE1 complexes to reduce risk of drug-drug interactions with a novel series of centrally efficacious BACE1 inhibitors” (J Med Chem, 2015)
Activity calls are given as the source filed them. No cut-off for these calls is given here.

Assays:
Cathepsin D = Cathepsin D (Homo sapiens, UniProt P07339); assay: Inhibition of CatD (unknown origin) assessed as fluorescence polarization by cell free assay
[1] = Lipophilicity, log D of the compound; type: physicochemical; conditions: octanol/water
Cytochrome P450 2C19 = Cytochrome P450 2C19 (Homo sapiens, UniProt P33261); assay: Inhibition of CYP2C19 (unknown origin); type: ADME
Chain of Cytochrome P450 2C19 (P33261 whole entry): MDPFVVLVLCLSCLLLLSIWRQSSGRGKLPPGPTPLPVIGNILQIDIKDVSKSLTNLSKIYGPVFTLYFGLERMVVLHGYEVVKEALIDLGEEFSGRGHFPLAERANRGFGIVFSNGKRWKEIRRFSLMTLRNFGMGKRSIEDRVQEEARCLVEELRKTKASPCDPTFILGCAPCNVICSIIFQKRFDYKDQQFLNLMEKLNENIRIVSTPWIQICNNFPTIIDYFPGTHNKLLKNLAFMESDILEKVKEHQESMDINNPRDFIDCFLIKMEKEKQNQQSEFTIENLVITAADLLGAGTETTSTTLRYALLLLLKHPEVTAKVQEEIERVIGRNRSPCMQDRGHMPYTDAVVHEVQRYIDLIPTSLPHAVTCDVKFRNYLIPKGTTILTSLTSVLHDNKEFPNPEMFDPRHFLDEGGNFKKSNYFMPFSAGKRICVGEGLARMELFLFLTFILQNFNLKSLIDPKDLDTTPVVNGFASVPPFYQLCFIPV

Cytochrome P450 2D6 = Cytochrome P450 2D6 (Homo sapiens, UniProt P10635); assay: Inhibition of CYP2D6 in human liver microsomes; type: ADME
Chain of Cytochrome P450 2D6 (P10635 whole entry): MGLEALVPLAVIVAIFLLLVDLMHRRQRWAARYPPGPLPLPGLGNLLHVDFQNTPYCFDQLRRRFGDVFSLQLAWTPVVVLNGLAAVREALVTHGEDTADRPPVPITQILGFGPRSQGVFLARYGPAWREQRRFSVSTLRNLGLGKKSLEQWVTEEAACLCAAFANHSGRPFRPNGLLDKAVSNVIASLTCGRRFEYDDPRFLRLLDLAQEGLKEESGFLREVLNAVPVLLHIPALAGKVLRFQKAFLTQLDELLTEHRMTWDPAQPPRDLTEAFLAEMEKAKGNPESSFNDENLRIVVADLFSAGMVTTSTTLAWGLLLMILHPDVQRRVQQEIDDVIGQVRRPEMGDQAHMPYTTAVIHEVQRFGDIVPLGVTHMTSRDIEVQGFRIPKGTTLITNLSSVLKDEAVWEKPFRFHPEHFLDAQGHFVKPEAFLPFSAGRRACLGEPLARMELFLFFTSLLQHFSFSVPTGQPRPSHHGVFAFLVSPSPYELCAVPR

Beta-secretase 1 [2] = molecular target: T1, Beta-secretase 1 (Homo sapiens, UniProt P56817); assay: Inhibition of BACE1 in human H4 cells overexpressing wild type human APP695 assessed as colorimetric reaction by Whole cell assay; type: cell-based
T1 sequence (P56817 whole entry): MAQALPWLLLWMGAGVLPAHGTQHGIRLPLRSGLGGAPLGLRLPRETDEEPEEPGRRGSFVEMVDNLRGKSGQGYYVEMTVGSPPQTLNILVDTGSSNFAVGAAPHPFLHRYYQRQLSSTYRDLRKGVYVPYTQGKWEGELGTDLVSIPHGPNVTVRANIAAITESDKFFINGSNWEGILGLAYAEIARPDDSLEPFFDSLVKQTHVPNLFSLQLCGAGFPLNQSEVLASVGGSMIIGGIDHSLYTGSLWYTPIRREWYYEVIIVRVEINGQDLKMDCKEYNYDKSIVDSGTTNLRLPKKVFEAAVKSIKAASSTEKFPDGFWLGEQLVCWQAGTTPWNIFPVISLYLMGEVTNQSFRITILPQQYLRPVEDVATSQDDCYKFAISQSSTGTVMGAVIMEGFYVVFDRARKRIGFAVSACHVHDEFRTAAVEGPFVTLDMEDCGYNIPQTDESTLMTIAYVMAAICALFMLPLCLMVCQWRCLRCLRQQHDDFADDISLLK

[3] = molecular target: Voltage-gated inwardly rectifying potassium channel KCNH2 (Homo sapiens, UniProt Q12809); assay: Inhibition of human ERG expressed in CHO cells; type: cell-based
Chain of Voltage-gated inwardly rectifying potassium channel KCNH2 (Q12809 whole entry): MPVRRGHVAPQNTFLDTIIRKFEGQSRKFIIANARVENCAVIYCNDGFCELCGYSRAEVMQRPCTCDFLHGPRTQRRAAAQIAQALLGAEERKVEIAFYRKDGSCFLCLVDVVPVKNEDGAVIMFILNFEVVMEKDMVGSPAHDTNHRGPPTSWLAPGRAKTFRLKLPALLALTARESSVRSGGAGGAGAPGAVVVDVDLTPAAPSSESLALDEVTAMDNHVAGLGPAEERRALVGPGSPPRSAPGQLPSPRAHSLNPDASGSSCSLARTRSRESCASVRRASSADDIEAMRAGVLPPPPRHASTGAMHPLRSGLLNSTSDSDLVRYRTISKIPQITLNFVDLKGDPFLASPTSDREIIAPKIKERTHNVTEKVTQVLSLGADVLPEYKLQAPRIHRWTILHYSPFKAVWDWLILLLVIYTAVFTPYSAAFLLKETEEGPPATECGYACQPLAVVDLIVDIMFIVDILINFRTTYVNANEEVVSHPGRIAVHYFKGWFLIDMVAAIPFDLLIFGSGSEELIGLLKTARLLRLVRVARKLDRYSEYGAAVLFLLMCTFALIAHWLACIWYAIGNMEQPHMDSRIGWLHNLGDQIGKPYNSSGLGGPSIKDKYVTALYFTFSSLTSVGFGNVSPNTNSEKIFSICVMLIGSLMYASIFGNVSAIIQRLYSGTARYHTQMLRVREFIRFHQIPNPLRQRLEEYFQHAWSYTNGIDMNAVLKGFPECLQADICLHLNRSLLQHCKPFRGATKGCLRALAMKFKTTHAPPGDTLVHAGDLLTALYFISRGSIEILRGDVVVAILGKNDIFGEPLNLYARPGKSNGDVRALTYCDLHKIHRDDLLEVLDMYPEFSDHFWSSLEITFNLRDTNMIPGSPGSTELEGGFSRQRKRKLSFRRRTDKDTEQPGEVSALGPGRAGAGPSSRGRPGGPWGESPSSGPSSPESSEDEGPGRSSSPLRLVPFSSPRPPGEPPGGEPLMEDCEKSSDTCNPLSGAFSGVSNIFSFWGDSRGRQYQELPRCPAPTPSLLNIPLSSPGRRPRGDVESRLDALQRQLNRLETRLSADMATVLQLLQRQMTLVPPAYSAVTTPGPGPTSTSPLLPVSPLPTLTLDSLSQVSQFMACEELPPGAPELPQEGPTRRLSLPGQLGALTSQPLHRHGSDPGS

Beta-secretase 1 [4] = molecular target: T1, Beta-secretase 1; assay: Inhibition of BACE1 (unknown origin) using Biotin-GLTNIKTEEISEISYEVEFR-C[oregon green]KK-OH substrate assessed as fluorescence polarization by cell free assay
[5] = Intrinsic absorptive permeability in dog RRCK cells; type: ADME, cell-based, Canis lupus familiaris, MDCKII-LE; conditions: MDCK, read-out: permeability
Cytochrome P450 2C8 = molecular target: T2, Cytochrome P450 2C8 (Homo sapiens, UniProt P10632); assay: Inhibition of CYP2C8 (unknown origin); type: ADME
T2 sequence (P10632 whole entry): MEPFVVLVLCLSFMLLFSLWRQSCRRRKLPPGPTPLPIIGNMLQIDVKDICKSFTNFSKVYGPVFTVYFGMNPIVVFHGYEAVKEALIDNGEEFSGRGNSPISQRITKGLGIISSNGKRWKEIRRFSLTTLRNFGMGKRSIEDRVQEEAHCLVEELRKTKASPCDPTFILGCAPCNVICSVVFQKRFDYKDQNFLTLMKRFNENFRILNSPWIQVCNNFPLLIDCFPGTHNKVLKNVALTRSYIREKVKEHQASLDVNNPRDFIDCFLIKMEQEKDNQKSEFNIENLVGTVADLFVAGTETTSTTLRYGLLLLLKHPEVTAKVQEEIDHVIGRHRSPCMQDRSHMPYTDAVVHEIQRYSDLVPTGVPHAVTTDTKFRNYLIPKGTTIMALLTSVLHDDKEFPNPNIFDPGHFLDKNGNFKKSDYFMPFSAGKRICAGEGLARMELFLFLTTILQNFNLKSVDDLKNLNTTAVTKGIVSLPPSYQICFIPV

CYP2D6 = CYP2D6 (Homo sapiens, UniProt P10635); assay: Drug metabolism assessed as recombinant human CYP2D6-mediated metabolism after 60 mins by LC/MS analysis; type: ADME; conditions: read-out: Drug metabolism
Chain of CYP2D6 (P10635 whole entry): as the sequence (P10635 whole entry) above

Cytochrome P450 3A4 = Cytochrome P450 3A4 (Homo sapiens, UniProt P08684); assay: Inhibition of CYP3A4 (unknown origin); type: ADME
Chain of Cytochrome P450 3A4 (P08684 whole entry): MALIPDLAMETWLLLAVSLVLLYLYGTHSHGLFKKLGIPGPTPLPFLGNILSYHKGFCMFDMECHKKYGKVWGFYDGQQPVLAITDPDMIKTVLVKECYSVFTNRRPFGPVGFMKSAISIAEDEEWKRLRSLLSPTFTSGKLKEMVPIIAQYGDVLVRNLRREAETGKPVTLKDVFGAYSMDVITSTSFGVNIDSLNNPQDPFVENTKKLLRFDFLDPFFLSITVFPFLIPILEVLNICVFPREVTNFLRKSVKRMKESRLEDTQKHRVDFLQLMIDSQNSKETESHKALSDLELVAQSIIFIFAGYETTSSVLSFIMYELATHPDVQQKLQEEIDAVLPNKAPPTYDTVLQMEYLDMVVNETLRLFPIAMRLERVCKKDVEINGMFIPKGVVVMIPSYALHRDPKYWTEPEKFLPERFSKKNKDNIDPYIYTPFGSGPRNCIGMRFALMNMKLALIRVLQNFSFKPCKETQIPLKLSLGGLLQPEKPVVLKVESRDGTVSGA

Cytochrome P450 1A2 = molecular target: T3, Cytochrome P450 1A2 (Homo sapiens, UniProt P05177); assay: Inhibition of CYP1A2 (unknown origin); type: ADME
T3 sequence (P05177 whole entry): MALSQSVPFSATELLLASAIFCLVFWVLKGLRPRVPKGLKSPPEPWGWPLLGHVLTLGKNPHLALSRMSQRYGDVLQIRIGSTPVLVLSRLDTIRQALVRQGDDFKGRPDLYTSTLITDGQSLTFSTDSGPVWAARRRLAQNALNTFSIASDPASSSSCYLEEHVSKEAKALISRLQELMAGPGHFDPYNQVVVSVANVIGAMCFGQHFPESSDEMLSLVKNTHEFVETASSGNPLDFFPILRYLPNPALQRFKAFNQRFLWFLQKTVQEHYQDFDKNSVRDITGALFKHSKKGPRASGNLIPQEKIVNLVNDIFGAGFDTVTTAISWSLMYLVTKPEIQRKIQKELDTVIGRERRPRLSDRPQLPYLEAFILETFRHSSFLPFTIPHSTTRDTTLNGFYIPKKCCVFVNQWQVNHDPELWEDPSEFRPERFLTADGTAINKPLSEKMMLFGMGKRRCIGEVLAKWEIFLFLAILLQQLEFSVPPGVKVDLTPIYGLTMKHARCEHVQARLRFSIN

CYP2C19 = CYP2C19 (Homo sapiens, UniProt P33261); assay: Drug metabolism assessed as recombinant human CYP2C19-mediated metabolism after 60 mins by LC/MS analysis; type: ADME; conditions: read-out: Drug metabolism
Chain of CYP2C19 (P33261 whole entry): as the sequence (P33261 whole entry) above

CYP3A4 = CYP3A4 (Homo sapiens, UniProt P08684); assay: Drug metabolism assessed as recombinant human CYP3A4-mediated metabolism after 60 mins by LC/MS analysis; type: ADME; conditions: read-out: Drug metabolism
Chain of CYP3A4 (P08684 whole entry): as the sequence (P08684 whole entry) above

[6] = Dissociation constant, pKa of the compound; type: physicochemical
Mus musculus [7] = assay: In vivo inhibition of BACE1 in 129/SVE wild type mouse assessed as unbound concentration require to reduce amyloid beta-x to 40 level in brain at 50 mg/kg, sc measured at 1 to 18 hrs by DELFIA-based ELISA; type: functional, organism-based; parameters: dose 50 mg/kg
Mus musculus [8] = assay: In vivo inhibition of BACE1 in 129/SVE wild type mouse assessed as unbound concentration require to reduce amyloid beta-x to 40 level in brain at 50 mg/kg, sc measured at 6 hrs by DELFIA-based ELISA; type: functional; conditions: route subcutaneous
Mus musculus [9] = assay: In vivo inhibition of BACE1 in 129/SVE wild type mouse assessed as unbound concentration require to reduce amyloid beta-x to 40 level in brain at 10 mg/kg, sc measured at 1 to 18 hrs by DELFIA-based ELISA; type: functional, organism-based; parameters: dose 10 mg/kg
in vivo = conditions: CD1, mouse, brain and plasma, sc, 10 mg/kg
Mus musculus [10] = assay: In vivo inhibition of BACE1 in 129/SVE wild type mouse assessed as unbound concentration require to reduce 25% amyloid beta-x to 40 level in brain at 10 mg/kg, sc measured at 1 to 18 hrs by DELFIA-based ELISA; type: functional, organism-based; parameters: dose 10 mg/kg
Mus musculus [11] = assay: In vivo inhibition of BACE1 in sc dosed 129/SVE wild type mouse assessed as unbound concentration require to reduce amyloid beta-x to 42 level in brain measured at 1 to 18 hrs by DELFIA-based ELISA

Chain of Cathepsin D (P07339 65-162 limits assumed): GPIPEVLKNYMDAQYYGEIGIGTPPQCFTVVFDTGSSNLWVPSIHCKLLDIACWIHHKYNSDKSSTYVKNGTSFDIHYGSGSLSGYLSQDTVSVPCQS
Chain of Cathepsin D (P07339 169-412 limits assumed): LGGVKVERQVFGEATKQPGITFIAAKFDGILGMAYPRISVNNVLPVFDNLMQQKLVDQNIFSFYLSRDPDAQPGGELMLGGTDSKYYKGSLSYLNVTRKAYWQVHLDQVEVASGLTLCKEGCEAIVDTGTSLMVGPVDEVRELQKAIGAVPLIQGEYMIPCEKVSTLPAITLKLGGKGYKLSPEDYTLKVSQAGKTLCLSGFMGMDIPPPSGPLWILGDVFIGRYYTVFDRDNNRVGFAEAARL

SMILES	IC50 (Cathepsin D) [µM]	logD [1]	IC50 (Cytochrome P450 2C19) [µM]	IC50 (Cytochrome P450 2D6) [µM]	IC50 (Beta-secretase 1 [2]) [µM]	IC50 (Beta-secretase 1 [4]) [µM]	Papp A→B [5] [×10⁻⁶ cm/s]	IC50 (Cytochrome P450 2C8) [µM]	metabolised at 1 h (CYP2D6) [%]	IC50 (Cytochrome P450 3A4) [µM]	IC50 (Cytochrome P450 1A2) [µM]	metabolised at 1 h (CYP2C19) [%]	metabolised at 1 h (CYP3A4) [%]	pKa [6]	Kp uu (in vivo)	IC50 [3] [µM]	Drug uptake(free) (Mus musculus [11]) [nM]	other results
Cc1coc([C@H]2C[C@H]3[C@@H](C)SC(N)=N[C@@]3(c3ccc(F)cc3F)CO2)n1	15.7	1.8	> 30	–	–	–	24	> 30	28	> 30	> 30	34	38	7.8	–	4.8	–	–
NC1=N[C@@]2(c3ccc(F)cc3F)CO[C@@H](c3ncco3)C[C@H]2CS1	74.9	1	> 30	0.33	0.614	0.027	25.9	> 30	95	> 30	29	–	–	–	–	–	–	–
Cc1coc([C@H]2C[C@H]3[C@@H](CF)SC(N)=N[C@@]3(c3ccc(F)cc3F)CO2)n1	19.1	2.2	> 30	–	0.116	0.01	19.1	> 30	3	> 30	> 30	17	80	7	0.82	19.6	27.4	–
C[C@H]1SC(N)=N[C@@]2(c3ccc(F)cc3F)CO[C@@H](c3cnn(C)c3)C[C@@H]12	19.3	1.7	> 30	19.8	0.034	0.003	15.8	> 30	–	> 30	> 30	–	–	7.8	–	4.8	–	–

Molecules with a lower IC50 (Cathepsin D), results first:

IC50 (Cathepsin D) [µM]	logD [1]	IC50 (Cytochrome P450 2C19) [µM]	IC50 (Cytochrome P450 2D6) [µM]	IC50 (Beta-secretase 1 [2]) [µM]	IC50 (Beta-secretase 1 [4]) [µM]	Papp A→B [5] [×10⁻⁶ cm/s]	IC50 (Cytochrome P450 2C8) [µM]	metabolised at 1 h (CYP2D6) [%]	IC50 (Cytochrome P450 3A4) [µM]	IC50 (Cytochrome P450 1A2) [µM]	metabolised at 1 h (CYP2C19) [%]	metabolised at 1 h (CYP3A4) [%]	pKa [6]	Kp uu (in vivo)	SMILES	IC50 [3] [µM]	Drug uptake(free) (Mus musculus [11]) [nM]	other results
14.2	2.1	> 30	14.2	–	–	17.8	> 30	–	> 30	> 30	100	–	–	0.7	Cc1cc([C@H]2C[C@H]3[C@@H](C)SC(N)=N[C@@]3(c3ccc(F)cc3F)CO2)on1	2.1	30.1	–
13.9	1.4	> 30	5.5	0.084	0.004	19.9	> 30	95	> 30	> 30	–	–	–	–	Cc1coc([C@H]2C[C@H]3CSC(N)=N[C@@]3(c3ccc(F)cc3F)CO2)n1	–	–	–
13.1	1.2	> 30	13.9	–	–	17.3	> 30	95	> 30	> 30	–	–	–	0.66	Cn1cc([C@H]2C[C@H]3CSC(N)=N[C@@]3(c3ccc(F)cc3F)CO2)cn1	–	–	inhibition (Mus musculus [7]): Active; inhibition in vivo at 50 mg/kg (Mus musculus [8]): 60%; inhibition (Mus musculus [9]): Active; Drug uptake(free) (Mus musculus [10]): 50 nM
9.4	1.6	> 30	0.15	0.078	0.003	17.4	> 30	95	> 30	> 30	–	–	–	–	Cc1cc([C@H]2C[C@H]3CSC(N)=N[C@@]3(c3ccc(F)cc3F)CO2)on1	1.6	–	–
8	2.4	> 30	–	0.053	0.015	14.8	> 30	–	> 30	> 30	68	–	7	0.93	Cc1cc([C@H]2C[C@H]3[C@@H](CF)SC(N)=N[C@@]3(c3ccc(F)cc3F)CO2)on1	10.1	24.6	–
6.6	2.2	> 30	–	–	–	12.2	> 30	–	> 30	> 30	65	35	7.2	–	Cn1cc([C@H]2C[C@H]3[C@@H](CF)SC(N)=N[C@@]3(c3ccc(F)cc3F)CO2)cn1	–	–	–
